In US12653800B2, “Small molecule inhibitors of TLR2 signaling” (University of Maryland, Baltimore, priority 2015, dated 2026):

Columns and labels:
[1] = target: TLR2/6 (Homo sapiens, UniProt O60603); experiment: P2C-induced IL-8 mRNA (qRT-PCR) in HEK-TLR2 stable transfectants; assay type: cell-based; set-up: expressed in transfected cells; settings: 100 μM compound, 1 hr pretreatment, P2C 5 ng/mL 1 hr, HEK-TLR2 cells; read-out: decrease of P2C-induced IL-8 mRNA
[2] = target: TLR2/1 (Mus musculus, UniProt Q9QUN7); experiment: Cytokine mRNA/protein in murine peritoneal macrophages stimulated with TLR2/1 agonists (P3C, LTA SA); assay type: cell-based; settings: murine macrophages, 25 μM or 50 μM, P3C 50 ng/mL 1 hr
Sequence of TLR2/1 (Q9QUN7 25-784): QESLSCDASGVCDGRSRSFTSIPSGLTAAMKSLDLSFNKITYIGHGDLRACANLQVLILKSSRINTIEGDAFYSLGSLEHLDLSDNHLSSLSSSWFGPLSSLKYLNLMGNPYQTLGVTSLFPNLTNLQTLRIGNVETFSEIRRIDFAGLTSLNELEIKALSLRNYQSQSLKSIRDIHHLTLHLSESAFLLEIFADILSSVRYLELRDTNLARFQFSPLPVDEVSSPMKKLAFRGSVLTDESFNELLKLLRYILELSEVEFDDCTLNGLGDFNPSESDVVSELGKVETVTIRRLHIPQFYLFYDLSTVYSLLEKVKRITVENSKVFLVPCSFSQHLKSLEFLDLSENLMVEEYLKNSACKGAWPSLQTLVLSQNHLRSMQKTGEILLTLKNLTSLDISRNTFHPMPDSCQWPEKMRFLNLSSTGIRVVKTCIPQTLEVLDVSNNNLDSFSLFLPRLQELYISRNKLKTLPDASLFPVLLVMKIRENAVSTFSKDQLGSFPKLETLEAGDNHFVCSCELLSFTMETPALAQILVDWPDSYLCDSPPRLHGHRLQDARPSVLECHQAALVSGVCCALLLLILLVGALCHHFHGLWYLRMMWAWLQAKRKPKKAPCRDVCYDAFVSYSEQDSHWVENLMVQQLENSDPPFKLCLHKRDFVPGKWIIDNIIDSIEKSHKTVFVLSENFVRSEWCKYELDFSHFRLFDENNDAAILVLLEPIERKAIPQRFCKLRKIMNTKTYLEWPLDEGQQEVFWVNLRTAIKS

[3] = in vivo; stated for o-vanillin, reported previously for its isomer vanillin (Beaudry 2010); cited from earlier work

Sequence of TLR2/6 (O60603 21-784): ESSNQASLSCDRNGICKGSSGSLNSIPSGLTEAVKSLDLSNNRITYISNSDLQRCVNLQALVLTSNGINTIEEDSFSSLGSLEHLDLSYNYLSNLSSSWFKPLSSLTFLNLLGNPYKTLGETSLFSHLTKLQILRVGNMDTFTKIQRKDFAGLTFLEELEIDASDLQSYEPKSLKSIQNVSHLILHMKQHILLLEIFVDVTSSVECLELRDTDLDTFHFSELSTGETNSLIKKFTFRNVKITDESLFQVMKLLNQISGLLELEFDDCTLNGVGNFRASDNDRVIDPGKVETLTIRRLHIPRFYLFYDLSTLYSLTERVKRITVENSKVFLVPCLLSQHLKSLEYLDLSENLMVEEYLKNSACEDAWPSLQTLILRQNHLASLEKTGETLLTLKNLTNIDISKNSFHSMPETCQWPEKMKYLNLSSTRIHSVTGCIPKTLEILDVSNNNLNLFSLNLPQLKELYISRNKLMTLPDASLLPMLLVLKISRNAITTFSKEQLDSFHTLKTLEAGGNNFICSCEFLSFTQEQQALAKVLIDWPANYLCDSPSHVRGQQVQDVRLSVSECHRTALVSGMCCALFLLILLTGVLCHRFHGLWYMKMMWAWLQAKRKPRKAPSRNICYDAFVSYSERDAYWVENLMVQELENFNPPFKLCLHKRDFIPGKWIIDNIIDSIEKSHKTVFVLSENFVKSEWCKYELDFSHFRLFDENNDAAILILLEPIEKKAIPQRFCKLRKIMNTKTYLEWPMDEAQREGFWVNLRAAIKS

SMILES	inhibition at 100 µM [1] [%]	also measured
COc1ccc(-c2nc(CSCC(=O)NCc3cccnc3)c(C)o2)cc1OC [Compound C26]	≥ 50	–
Cc1ccc(S(=O)(=O)NCCC(=O)NCCc2ccccc2)cc1 [Compound C33]	≥ 50	–
COc1cccc(-c2nc(CSCC(=O)NCCN3CCOCC3)c(C)o2)c1 [Compound C25]	≥ 50	–
Cc1c(N)cccc1C(=O)O [Compound C29R, 3-amino-2-methylbenzoic acid, reference compound]	–	TLR2/1-induced TNF-α gene expression [2]: but not C29R, dose-dependently inhibited
O=C(CCC1N=C2c3ccccc3NC(=S)N2C1=O)NCc1ccco1 (centres unmarked) [Compound C30]	≥ 50	–
CCN(CCCNc1nc(=S)[nH]c2ccccc12)c1ccccc1 [Compound C32]	≥ 50	–
COc1cc(C=O)ccc1O [vanillin, reference compound]	–	bioavailability [3]: poor bioavailability
CN(CC(=O)Nc1ccc2c(c1)OCO2)S(=O)(=O)c1cccs1 [Compound C24]	≥ 50	–
